Measured values reported in ChEMBL document CHEMBL4507268 (2021).

What was measured:
Conditions in all cases: Compound concentration 1.0 uM
[1] = target: T1, Phosphorylase b kinase regulatory subunit alpha, liver isoform (Homo sapiens) (UniProt P46019)
T1 sequence (whole entry): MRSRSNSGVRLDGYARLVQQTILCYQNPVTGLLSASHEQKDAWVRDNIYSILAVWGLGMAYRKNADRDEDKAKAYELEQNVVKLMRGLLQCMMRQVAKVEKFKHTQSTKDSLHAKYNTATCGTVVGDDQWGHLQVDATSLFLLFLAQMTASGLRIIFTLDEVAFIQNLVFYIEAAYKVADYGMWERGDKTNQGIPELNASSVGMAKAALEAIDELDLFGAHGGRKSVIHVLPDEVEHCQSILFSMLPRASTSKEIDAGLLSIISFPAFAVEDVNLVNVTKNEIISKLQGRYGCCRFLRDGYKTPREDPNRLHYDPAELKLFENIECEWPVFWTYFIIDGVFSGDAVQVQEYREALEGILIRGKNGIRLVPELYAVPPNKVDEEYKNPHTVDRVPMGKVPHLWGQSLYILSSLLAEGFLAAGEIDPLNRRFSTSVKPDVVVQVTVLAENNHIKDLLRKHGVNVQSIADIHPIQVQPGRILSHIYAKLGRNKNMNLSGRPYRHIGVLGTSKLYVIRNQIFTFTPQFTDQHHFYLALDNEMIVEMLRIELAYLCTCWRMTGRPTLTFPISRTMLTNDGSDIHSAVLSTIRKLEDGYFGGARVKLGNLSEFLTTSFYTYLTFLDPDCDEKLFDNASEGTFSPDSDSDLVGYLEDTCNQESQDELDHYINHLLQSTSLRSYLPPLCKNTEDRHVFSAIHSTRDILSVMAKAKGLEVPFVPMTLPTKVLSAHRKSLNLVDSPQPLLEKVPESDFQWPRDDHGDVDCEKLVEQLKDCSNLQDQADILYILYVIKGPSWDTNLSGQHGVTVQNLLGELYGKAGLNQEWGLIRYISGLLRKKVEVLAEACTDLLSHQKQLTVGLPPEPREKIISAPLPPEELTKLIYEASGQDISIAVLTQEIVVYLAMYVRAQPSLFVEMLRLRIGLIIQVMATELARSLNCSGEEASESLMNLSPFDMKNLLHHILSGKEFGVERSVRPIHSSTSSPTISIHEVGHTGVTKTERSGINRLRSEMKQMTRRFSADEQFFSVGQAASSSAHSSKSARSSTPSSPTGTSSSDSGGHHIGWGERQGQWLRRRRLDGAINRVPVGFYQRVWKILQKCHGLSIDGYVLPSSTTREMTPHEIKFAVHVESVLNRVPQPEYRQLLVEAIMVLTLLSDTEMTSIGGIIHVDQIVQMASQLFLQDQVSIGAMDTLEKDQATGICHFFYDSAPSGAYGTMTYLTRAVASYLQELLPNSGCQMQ

[2] = target: T2, Serine/threonine-protein kinase Nek3 (Homo sapiens) (UniProt P51956)
T2 sequence (whole entry): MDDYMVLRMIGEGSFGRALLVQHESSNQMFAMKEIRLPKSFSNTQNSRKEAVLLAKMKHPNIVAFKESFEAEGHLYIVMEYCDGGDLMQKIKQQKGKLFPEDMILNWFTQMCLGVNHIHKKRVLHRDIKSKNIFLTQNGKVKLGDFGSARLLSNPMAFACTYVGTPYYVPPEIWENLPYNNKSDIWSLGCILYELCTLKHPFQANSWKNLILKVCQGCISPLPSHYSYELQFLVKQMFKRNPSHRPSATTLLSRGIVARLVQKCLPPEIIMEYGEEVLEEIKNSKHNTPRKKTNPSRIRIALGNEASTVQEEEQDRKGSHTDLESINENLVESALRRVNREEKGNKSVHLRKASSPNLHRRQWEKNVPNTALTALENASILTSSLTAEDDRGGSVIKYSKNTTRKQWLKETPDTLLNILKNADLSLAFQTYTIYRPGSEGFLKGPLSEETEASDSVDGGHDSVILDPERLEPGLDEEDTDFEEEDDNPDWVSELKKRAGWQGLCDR

[3] = target: Mitogen-activated protein kinase kinase kinase 9 (Homo sapiens) (UniProt P80192)
Sequence of Mitogen-activated protein kinase kinase kinase 9 (Homo sapiens) (P80192 whole entry, looked up): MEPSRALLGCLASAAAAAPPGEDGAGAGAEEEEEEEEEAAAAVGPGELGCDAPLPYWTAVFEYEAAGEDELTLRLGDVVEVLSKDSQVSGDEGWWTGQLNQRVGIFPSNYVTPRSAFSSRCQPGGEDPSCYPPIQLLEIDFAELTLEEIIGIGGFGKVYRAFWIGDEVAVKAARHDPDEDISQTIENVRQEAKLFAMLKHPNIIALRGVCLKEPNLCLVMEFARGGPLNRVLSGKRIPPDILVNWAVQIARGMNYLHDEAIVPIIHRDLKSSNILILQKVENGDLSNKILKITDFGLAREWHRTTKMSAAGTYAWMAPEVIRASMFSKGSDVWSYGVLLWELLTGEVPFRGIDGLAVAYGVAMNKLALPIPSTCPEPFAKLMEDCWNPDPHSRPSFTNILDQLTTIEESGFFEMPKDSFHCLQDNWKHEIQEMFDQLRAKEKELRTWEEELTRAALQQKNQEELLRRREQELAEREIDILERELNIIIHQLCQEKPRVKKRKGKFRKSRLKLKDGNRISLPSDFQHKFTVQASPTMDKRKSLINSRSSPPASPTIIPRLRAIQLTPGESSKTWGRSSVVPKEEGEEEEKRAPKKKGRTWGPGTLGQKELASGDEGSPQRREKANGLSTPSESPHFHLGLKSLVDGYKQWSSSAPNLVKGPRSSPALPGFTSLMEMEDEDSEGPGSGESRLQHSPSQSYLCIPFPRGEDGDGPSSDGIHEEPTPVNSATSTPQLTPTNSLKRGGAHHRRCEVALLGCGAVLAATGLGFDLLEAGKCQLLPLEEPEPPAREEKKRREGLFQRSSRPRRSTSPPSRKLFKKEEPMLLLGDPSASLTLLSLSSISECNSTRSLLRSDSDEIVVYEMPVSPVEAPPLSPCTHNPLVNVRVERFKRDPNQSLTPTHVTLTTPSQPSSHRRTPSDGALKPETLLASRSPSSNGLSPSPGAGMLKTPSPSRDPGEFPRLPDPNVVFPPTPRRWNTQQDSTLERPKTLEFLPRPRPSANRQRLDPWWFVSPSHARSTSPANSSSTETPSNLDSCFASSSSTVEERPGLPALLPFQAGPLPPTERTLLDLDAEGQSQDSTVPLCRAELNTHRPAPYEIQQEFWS

[4] = target: Serine/threonine-protein kinase WNK1 (Homo sapiens) (UniProt Q9H4A3)
Sequence of Serine/threonine-protein kinase WNK1 (Homo sapiens) (Q9H4A3 whole entry, looked up): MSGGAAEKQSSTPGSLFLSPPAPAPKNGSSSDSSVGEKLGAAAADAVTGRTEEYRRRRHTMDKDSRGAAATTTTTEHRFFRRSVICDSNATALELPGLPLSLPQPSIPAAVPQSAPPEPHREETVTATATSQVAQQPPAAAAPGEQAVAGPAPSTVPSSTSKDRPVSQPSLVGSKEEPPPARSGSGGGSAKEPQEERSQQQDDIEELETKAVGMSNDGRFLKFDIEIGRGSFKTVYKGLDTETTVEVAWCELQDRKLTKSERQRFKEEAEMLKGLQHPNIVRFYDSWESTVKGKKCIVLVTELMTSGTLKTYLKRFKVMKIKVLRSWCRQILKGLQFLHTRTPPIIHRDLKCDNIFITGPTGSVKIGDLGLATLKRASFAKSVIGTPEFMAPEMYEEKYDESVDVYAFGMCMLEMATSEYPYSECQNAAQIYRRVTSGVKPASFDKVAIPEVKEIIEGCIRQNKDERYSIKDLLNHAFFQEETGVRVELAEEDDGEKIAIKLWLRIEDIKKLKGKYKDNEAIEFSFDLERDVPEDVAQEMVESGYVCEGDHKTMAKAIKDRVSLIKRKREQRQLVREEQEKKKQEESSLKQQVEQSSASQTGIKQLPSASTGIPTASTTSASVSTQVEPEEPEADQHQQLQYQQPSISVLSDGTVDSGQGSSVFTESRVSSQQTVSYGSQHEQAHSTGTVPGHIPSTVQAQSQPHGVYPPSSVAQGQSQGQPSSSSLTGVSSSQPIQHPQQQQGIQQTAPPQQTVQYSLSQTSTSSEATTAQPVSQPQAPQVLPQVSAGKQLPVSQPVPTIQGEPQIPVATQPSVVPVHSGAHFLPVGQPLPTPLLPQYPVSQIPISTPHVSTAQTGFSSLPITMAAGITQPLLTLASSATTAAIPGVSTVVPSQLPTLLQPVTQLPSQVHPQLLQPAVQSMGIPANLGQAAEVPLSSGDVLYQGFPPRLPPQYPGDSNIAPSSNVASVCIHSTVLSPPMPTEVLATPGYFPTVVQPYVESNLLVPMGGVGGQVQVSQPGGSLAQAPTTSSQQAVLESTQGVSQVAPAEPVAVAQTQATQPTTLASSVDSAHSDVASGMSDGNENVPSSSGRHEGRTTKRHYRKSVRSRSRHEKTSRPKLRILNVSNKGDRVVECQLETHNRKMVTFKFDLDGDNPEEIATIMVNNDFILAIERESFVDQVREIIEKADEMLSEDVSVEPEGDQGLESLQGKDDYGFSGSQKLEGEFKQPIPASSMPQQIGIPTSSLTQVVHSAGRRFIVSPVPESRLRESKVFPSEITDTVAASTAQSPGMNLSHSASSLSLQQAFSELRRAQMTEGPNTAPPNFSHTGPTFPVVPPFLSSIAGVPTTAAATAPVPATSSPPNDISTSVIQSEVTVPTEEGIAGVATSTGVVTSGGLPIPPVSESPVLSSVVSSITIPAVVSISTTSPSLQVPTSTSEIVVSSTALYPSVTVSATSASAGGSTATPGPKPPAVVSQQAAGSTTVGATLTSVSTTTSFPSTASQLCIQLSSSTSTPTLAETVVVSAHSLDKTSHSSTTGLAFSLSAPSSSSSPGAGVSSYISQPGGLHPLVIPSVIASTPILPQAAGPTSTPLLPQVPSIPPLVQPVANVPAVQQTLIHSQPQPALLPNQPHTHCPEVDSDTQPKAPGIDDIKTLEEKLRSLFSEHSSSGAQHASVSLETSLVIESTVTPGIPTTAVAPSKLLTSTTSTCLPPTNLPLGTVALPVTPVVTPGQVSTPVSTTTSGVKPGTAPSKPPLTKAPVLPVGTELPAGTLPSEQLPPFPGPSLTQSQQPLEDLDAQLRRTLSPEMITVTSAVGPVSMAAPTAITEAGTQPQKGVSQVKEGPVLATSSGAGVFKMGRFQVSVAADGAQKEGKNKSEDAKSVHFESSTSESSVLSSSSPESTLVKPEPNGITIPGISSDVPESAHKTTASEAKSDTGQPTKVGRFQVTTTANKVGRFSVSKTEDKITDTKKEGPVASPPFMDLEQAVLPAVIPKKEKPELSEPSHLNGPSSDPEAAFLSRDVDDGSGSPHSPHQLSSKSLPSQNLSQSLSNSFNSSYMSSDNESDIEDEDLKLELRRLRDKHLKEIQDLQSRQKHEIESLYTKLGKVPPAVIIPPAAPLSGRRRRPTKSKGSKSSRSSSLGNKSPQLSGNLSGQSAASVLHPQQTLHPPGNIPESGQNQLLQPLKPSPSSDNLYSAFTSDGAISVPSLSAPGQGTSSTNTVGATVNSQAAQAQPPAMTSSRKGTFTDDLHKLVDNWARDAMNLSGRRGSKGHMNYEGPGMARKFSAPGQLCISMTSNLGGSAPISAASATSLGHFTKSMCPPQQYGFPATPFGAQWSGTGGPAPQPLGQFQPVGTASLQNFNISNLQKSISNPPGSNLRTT

[5] = target: Fibroblast growth factor receptor 3 (Homo sapiens) (UniProt P22607)
Sequence of Fibroblast growth factor receptor 3 (Homo sapiens) (P22607 23-806 limits assumed): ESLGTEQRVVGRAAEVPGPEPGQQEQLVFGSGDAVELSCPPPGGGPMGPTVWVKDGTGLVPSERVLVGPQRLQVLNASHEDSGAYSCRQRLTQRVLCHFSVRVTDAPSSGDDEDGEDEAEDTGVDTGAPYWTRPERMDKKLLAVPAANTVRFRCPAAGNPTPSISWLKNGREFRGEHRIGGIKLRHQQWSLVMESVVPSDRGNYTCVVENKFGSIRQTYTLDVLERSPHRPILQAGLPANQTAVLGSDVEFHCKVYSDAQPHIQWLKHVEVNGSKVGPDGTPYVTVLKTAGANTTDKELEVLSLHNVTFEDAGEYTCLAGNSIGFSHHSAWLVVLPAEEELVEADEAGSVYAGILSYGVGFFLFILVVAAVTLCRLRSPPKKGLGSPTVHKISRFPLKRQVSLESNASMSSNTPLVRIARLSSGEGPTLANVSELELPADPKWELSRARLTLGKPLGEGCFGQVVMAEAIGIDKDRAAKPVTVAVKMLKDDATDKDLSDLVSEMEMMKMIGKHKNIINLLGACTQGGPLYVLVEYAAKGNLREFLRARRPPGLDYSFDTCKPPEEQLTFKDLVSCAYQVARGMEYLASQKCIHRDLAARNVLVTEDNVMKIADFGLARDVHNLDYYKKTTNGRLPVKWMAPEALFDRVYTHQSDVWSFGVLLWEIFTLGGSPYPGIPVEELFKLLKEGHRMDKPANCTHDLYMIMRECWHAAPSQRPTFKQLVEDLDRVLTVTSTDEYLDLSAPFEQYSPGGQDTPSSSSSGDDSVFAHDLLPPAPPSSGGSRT

[6] = target: T3, Serine/threonine-protein kinase Chk1 (Homo sapiens) (UniProt O14757)
T3 sequence (whole entry): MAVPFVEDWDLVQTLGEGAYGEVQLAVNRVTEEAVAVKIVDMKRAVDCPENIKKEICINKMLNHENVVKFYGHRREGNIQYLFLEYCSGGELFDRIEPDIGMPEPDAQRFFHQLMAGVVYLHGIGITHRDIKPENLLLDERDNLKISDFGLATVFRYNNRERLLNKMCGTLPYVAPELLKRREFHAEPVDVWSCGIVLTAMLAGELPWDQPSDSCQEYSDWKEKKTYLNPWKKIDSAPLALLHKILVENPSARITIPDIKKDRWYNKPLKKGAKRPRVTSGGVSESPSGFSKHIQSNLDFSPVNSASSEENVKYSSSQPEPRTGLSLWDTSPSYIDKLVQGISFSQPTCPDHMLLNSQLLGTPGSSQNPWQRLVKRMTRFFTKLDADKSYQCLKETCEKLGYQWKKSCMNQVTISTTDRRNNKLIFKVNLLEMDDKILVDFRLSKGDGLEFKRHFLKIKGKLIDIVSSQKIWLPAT

[7] = target: Serine/threonine-protein kinase B-raf (Homo sapiens) (UniProt P15056)
Sequence of Serine/threonine-protein kinase B-raf (Homo sapiens) (P15056 whole entry): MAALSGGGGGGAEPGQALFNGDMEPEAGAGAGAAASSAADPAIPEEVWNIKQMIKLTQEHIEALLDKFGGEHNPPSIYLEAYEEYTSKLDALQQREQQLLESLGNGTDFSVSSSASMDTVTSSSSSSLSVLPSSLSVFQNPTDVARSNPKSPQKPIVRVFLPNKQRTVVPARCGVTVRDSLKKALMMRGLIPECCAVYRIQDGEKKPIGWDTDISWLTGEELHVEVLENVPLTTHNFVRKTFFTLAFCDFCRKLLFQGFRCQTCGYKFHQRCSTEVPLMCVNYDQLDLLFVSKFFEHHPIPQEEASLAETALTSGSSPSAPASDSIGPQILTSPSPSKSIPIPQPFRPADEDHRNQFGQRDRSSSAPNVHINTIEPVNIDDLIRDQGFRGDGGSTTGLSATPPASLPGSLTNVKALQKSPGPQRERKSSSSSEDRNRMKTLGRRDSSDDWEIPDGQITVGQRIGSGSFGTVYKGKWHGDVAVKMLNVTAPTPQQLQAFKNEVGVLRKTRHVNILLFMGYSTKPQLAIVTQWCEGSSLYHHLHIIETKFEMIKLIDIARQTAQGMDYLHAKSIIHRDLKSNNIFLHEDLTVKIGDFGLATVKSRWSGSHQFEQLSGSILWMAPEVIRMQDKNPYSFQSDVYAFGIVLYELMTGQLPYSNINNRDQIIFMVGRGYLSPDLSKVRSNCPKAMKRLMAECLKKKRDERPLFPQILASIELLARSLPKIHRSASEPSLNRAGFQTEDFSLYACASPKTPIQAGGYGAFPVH

Measured: % residual kinase activity

CN1CCN(c2cnc3c(C4CCN(C(=O)c5ccc(OC(F)(F)F)cc5N)CC4)ncnc3c2)CC1 [BAY-885]
inactive: [1] 112% | [2] 111% | [3] 108% | [4] 105% | [5] 106% | [6] 89% | [7] 109%
